# Measurements from ChEMBL document CHEMBL1201862, “PubChem BioAssay data set” (2004).
#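 Tested at 5 concentrations; 48 h exposure; 96-well plates; endpoints linearly interpolated, else capped at highest concentration. Here, GI50 denotes the concentration required for 50% inhibition of growth.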 The source made the active and inactive calls. Cut-off read from the data, not from the text of the source: active = GI50 up to about 1.1 µM and inactive = higher.
# Columns and labels:
# Experiment in all cases: NCI-60 cell line screen, 48 h
# HCT-15 = test system: HCT-15
# 786-0 = test system: 786-0
# DU-145 = test system: DU-145
# HCC 2998 = test system: HCC 2998
# HOP-62 = test system: HOP-62
# PC-3 = test system: PC-3
# MDA-MB-435 = test system: MDA-MB-435
# RPMI-8226 = test system: RPMI-8226
# EKVX = test system: EKVX
# Malme-3M = test system: Malme-3M
# IGROV-1 = test system: IGROV-1
# SK-MEL-5 = test system: SK-MEL-5
# OVCAR-3 = test system: OVCAR-3
# CAKI-1 = test system: CAKI-1
# MDA-N = test system: MDA-N
# SF-295 = test system: SF-295
# Hs-578T = test system: Hs-578T
# ACHN = test system: ACHN
# KM12 = test system: KM12
# NCI-H460 = test system: NCI-H460
# OVCAR-5 = test system: OVCAR-5
# SF-268 = test system: SF-268
# SNB-19 = test system: SNB-19
# LOX IMVI = test system: LOX IMVI
# SW-620 = test system: SW-620
# NCI/ADR-RES = test system: NCI/ADR-RES
# NCI-H23 = test system: NCI-H23
# SK-OV-3 = test system: SK-OV-3
# NCI-H226 = test system: NCI-H226
# RXF 393 = test system: RXF 393
# HCT-116 = test system: HCT-116
# MDA-MB-231 = test system: MDA-MB-231
# UO-31 = test system: UO-31
# BT-549 = test system: BT-549
# U-251 = test system: U-251
# OVCAR-8 = test system: OVCAR-8
# A498 = test system: A498
# MCF7 = test system: MCF7
# TK-10 = test system: TK-10
# M14 = test system: M14
# COLO 205 = test system: COLO 205
# SK-MEL-2 = test system: SK-MEL-2
# SR = test system: SR
# HT-29 = test system: HT-29
# SK-MEL-28 = test system: SK-MEL-28
# MOLT-4 = test system: MOLT-4
# K562 = test system: K562
# CCRF-CEM = test system: CCRF-CEM
# SNB-75 = test system: SNB-75
# UACC-257 = test system: UACC-257
# HL-60 = test system: HL-60
# OVCAR-4 = test system: OVCAR-4
# A549 = test system: A549
# UACC-62 = test system: UACC-62
# HOP-92 = test system: HOP-92
# SN12C = test system: SN12C
# SF-539 = test system: SF-539
# NCI-H522 = test system: NCI-H522
compound,measurement,setting,value
Cc1cc(C)n(C(=O)C(C)Sc2nnc(SC(C)C(=O)n3nc(C)cc3C)s2)n1 (stereo not given),GI50,HCT-15,> 100 µM
same,GI50,786-0,> 100 µM (inactive)
same,GI50,DU-145,> 100 µM (inactive)
same,GI50,HCC 2998,> 100 µM (inactive)
same,GI50,HOP-62,> 100 µM (inactive)
same,GI50,PC-3,> 100 µM (inactive)
same,GI50,MDA-MB-435,> 100 µM (inactive)
same,GI50,RPMI-8226,> 100 µM (inactive)
same,GI50,EKVX,> 100 µM (inactive)
same,GI50,Malme-3M,> 100 µM (inactive)
same,GI50,IGROV-1,> 100 µM (inactive)
same,GI50,SK-MEL-5,> 100 µM (inactive)
same,GI50,OVCAR-3,> 100 µM (inactive)
same,GI50,CAKI-1,> 100 µM (inactive)
same,GI50,MDA-N,> 100 µM (inactive)
same,GI50,SF-295,> 100 µM (inactive)
same,GI50,Hs-578T,> 100 µM (inactive)
same,GI50,ACHN,> 100 µM (inactive)
same,GI50,KM12,> 100 µM (inactive)
same,GI50,NCI-H460,> 100 µM (inactive)
same,GI50,OVCAR-5,> 100 µM (inactive)
same,GI50,SF-268,> 100 µM (inactive)
same,GI50,SNB-19,> 100 µM (inactive)
same,GI50,LOX IMVI,> 100 µM (inactive)
same,GI50,SW-620,> 100 µM (inactive)
same,GI50,NCI/ADR-RES,> 100 µM (inactive)
same,GI50,NCI-H23,> 100 µM (inactive)
same,GI50,SK-OV-3,> 100 µM (inactive)
same,GI50,NCI-H226,> 100 µM (inactive)
same,GI50,RXF 393,> 100 µM (inactive)
same,GI50,HCT-116,> 100 µM (inactive)
same,GI50,MDA-MB-231,> 100 µM (inactive)
same,GI50,UO-31,> 100 µM (inactive)
same,GI50,BT-549,> 100 µM (inactive)
same,GI50,U-251,> 100 µM (inactive)
same,GI50,OVCAR-8,> 100 µM (inactive)
same,GI50,A498,> 100 µM (inactive)
same,GI50,MCF7,> 100 µM (inactive)
same,GI50,TK-10,> 100 µM (inactive)
same,GI50,M14,> 100 µM (inactive)
same,GI50,COLO 205,> 100 µM (inactive)
same,GI50,SK-MEL-2,> 100 µM (inactive)
same,GI50,SR,> 100 µM (inactive)
same,GI50,HT-29,> 100 µM (inactive)
same,GI50,SK-MEL-28,> 100 µM (inactive)
same,GI50,MOLT-4,> 100 µM (inactive)
same,GI50,K562,> 100 µM (inactive)
same,GI50,CCRF-CEM,> 100 µM (inactive)
same,GI50,SNB-75,> 100 µM (inactive)
same,GI50,UACC-257,> 100 µM (inactive)
same,GI50,HL-60,> 100 µM (inactive)
same,GI50,OVCAR-4,> 100 µM (inactive)
same,GI50,A549,> 100 µM (inactive)
same,GI50,UACC-62,> 100 µM (inactive)
same,GI50,HOP-92,> 100 µM (inactive)
C/C(=N/NC(=S)N1CCCC1)c1cccc(/C(C)=N\NC(=S)N2CCCC2)n1,GI50,HCT-15,0.492 µM
same,GI50,786-0,1.37 µM (inactive)
same,GI50,DU-145,2.61 µM (inactive)
same,GI50,HCC 2998,1.21 µM (inactive)
same,GI50,HOP-62,0.378 µM (active)
same,GI50,PC-3,0.076 µM (active)
same,GI50,MDA-MB-435,1.43 µM (inactive)
same,GI50,RPMI-8226,2.06 µM (inactive)
same,GI50,EKVX,0.152 µM (active)
same,GI50,Malme-3M,1.84 µM (inactive)
same,GI50,IGROV-1,0.881 µM (active)
same,GI50,SK-MEL-5,1.36 µM (inactive)
same,GI50,OVCAR-3,0.0973 µM (active)
same,GI50,CAKI-1,1.28 µM (inactive)
same,GI50,SN12C,1.14 µM (inactive)
same,GI50,SF-539,1.36 µM (inactive)
same,GI50,MDA-N,1.38 µM (inactive)
same,GI50,SF-295,0.548 µM (active)
same,GI50,Hs-578T,3.49 µM (inactive)
same,GI50,ACHN,0.791 µM (active)
same,GI50,KM12,1.22 µM (inactive)
same,GI50,NCI-H460,1.06 µM (active)
same,GI50,OVCAR-5,1.7 µM (inactive)
same,GI50,SF-268,1.68 µM (inactive)
same,GI50,SNB-19,2.57 µM (inactive)
same,GI50,LOX IMVI,0.0847 µM (active)
same,GI50,SW-620,0.267 µM (active)
same,GI50,NCI/ADR-RES,1.96 µM (inactive)
same,GI50,NCI-H23,1.88 µM (inactive)
same,GI50,SK-OV-3,1.46 µM (inactive)
same,GI50,NCI-H226,1.62 µM (inactive)
same,GI50,RXF 393,1.32 µM (inactive)
same,GI50,HCT-116,1.14 µM (inactive)
same,GI50,MDA-MB-231,0.046 µM (active)
same,GI50,UO-31,0.766 µM (active)
same,GI50,BT-549,2.23 µM (inactive)
same,GI50,U-251,1.5 µM (inactive)
same,GI50,OVCAR-8,1.11 µM (active)
same,GI50,A498,1.29 µM (inactive)
same,GI50,TK-10,1.39 µM (inactive)
same,GI50,M14,1.25 µM (inactive)
same,GI50,NCI-H522,1.8 µM (inactive)
same,GI50,COLO 205,0.785 µM (active)
same,GI50,SK-MEL-2,1.7 µM (inactive)
same,GI50,SR,0.0944 µM (active)
same,GI50,HT-29,0.0318 µM (active)
same,GI50,SK-MEL-28,1.97 µM (inactive)
same,GI50,MOLT-4,0.0412 µM (active)
same,GI50,K562,0.0468 µM (active)
same,GI50,CCRF-CEM,0.0667 µM (active)
same,GI50,SNB-75,1.21 µM (inactive)
same,GI50,HL-60,0.453 µM (active)
same,GI50,A549,1.44 µM (inactive)
same,GI50,UACC-62,2.25 µM (inactive)
CN1COCc2cc3cc4c(cc3nc21)OCCO4,GI50,HCT-15,> 100 µM
same,GI50,786-0,> 100 µM (inactive)
same,GI50,HCC 2998,> 100 µM (inactive)
same,GI50,HOP-62,> 100 µM (inactive)
same,GI50,PC-3,91.8 µM (inactive)
same,GI50,MDA-MB-435,> 100 µM (inactive)
same,GI50,RPMI-8226,4.72 µM (inactive)
same,GI50,EKVX,> 100 µM (inactive)
same,GI50,Malme-3M,30 µM (inactive)
same,GI50,IGROV-1,55 µM (inactive)
same,GI50,SK-MEL-5,39.5 µM (inactive)
same,GI50,CAKI-1,94.6 µM (inactive)
same,GI50,SN12C,> 100 µM (inactive)
same,GI50,SF-539,> 100 µM (inactive)
same,GI50,MDA-N,> 100 µM (inactive)
same,GI50,SF-295,> 100 µM (inactive)
same,GI50,Hs-578T,0.0452 µM (active)
same,GI50,ACHN,> 100 µM (inactive)
same,GI50,KM12,41.5 µM (inactive)
same,GI50,NCI-H460,44.8 µM (inactive)
same,GI50,OVCAR-5,> 100 µM (inactive)
same,GI50,SF-268,> 100 µM (inactive)
same,GI50,SNB-19,> 100 µM (inactive)
same,GI50,LOX IMVI,> 100 µM (inactive)
same,GI50,SW-620,> 100 µM (inactive)
same,GI50,NCI/ADR-RES,> 100 µM (inactive)
same,GI50,SK-OV-3,> 100 µM (inactive)
same,GI50,NCI-H226,> 100 µM (inactive)
same,GI50,RXF 393,> 100 µM (inactive)
same,GI50,HCT-116,93.3 µM (inactive)
same,GI50,MDA-MB-231,> 100 µM (inactive)
same,GI50,BT-549,87.3 µM (inactive)
same,GI50,U-251,> 100 µM (inactive)
same,GI50,OVCAR-8,> 100 µM (inactive)
same,GI50,A498,> 100 µM (inactive)
same,GI50,MCF7,21.2 µM (inactive)
same,GI50,TK-10,> 100 µM (inactive)
same,GI50,M14,> 100 µM (inactive)
same,GI50,NCI-H522,> 100 µM (inactive)
same,GI50,COLO 205,> 100 µM (inactive)
same,GI50,SK-MEL-2,> 100 µM (inactive)
same,GI50,HT-29,> 100 µM (inactive)
same,GI50,MOLT-4,11.5 µM (inactive)
same,GI50,K562,> 100 µM (inactive)
same,GI50,CCRF-CEM,81.7 µM (inactive)
same,GI50,SNB-75,> 100 µM (inactive)
same,GI50,UACC-257,> 100 µM (inactive)
same,GI50,OVCAR-4,> 100 µM (inactive)
same,GI50,A549,> 100 µM (inactive)
same,GI50,UACC-62,> 100 µM (inactive)
same,GI50,HOP-92,38.8 µM (inactive)
